Literature values as cited in patent US8148152B2, “Method for the preparation of embryoid bodies (EBs) and uses thereof” (Axiogenesis AG, priority 2003, dated 2012).

Tests used:
[1] = test system: ES cell-derived cardiomyocytes; conditions: test compounds with known cardiotoxic potential; added on day 14, effect on fluorescent areas during 72 hours; data only in FIG. 6
[2] = test system: EBs from mouse embryonic stem cells (clone D3, pαMHC-GFP); conditions: test compounds with known embryotoxic potential from ECVAM list; 10^-8 to 10^-5 M; fluorescence on day 14 as percent of control (0.1% DMSO); data only in FIG. 5

| Structure (SMILES) | cardiotoxic potential (classification of test compound) [1] | embryotoxic potential (classification of test compound) [2] |
| --- | --- | --- |
| C[C@@H]1C[C@H]2[C@@H]3CCC4=CC(=O)C=C[C@]4(C)[C@@]3(F)[C@@H](O)C[C@]2(C)[C@@]1(O)C(=O)CO [dexamethasone] | non cardiotoxic | – |
| COC(=O)c1ccccc1C(=O)OC [dimethylphtalate] | – | non-embryotoxic |
| COc1cccc2c1C(=O)c1c(O)c3c(c(O)c1C2=O)C[C@@](O)(C(=O)CO)C[C@@H]3O[C@H]1C[C@H](N)[C@H](O)[C@H](C)O1 [doxorubicine] | cardiotoxic | – |
| CN(Cc1cnc2nc(N)nc(N)c2n1)c1ccc(C(=O)N[C@@H](CCC(=O)O)C(=O)O)cc1 [methotrexate] | – | strong embryotoxic |
| CCCC(CCC)C(=O)O [valproic acid] | – | weak embryotoxic |
